Tests used:
[1] = molecular target: Carbonic anhydrase 9 (Homo sapiens, UniProt Q16790)
[2] = molecular target: Carbonic anhydrase 1 (Homo sapiens, UniProt P00915)
[3] = molecular target: Carbonic anhydrase 3 (Homo sapiens, UniProt P07451)
[4] = molecular target: Carbonic anhydrase 7 (Homo sapiens, UniProt P43166)
[5] = molecular target: Carbonic anhydrase 12 (Homo sapiens, UniProt O43570)
[6] = molecular target: T1, Carbonic anhydrase 15 (Mus musculus, UniProt Q99N23)
T1 sequence (Q99N23 whole entry): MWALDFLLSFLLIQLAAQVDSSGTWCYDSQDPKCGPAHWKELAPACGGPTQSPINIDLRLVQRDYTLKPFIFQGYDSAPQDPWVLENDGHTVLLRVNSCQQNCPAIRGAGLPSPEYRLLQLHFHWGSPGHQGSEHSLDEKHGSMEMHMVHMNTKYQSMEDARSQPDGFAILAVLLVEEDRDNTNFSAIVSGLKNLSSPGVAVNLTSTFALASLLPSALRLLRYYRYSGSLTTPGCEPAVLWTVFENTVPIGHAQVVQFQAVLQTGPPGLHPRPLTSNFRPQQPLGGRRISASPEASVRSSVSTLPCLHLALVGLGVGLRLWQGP

[7] = molecular target: Carbonic anhydrase 13 (Homo sapiens, UniProt Q8N1Q1); experiment: Inhibition of human recombinant carbonic anhydrase 13 after 15 mins by stopped-flow CO2 hydration assay
[8] = molecular target: Carbonic anhydrase 5A, mitochondrial (Homo sapiens, UniProt P35218); experiment: Inhibition of human recombinant carbonic anhydrase 5a after 15 mins by stopped-flow CO2 hydration assay
[9] = molecular target: Carbonic anhydrase 14 (Homo sapiens, UniProt Q9ULX7); experiment: Inhibition of human recombinant carbonic anhydrase 14 after 15 mins by stopped-flow CO2 hydration assay
[10] = molecular target: Carbonic anhydrase 5B, mitochondrial (Homo sapiens, UniProt Q9Y2D0)
Chain of Carbonic anhydrase 5B, mitochondrial (Q9Y2D0 whole entry): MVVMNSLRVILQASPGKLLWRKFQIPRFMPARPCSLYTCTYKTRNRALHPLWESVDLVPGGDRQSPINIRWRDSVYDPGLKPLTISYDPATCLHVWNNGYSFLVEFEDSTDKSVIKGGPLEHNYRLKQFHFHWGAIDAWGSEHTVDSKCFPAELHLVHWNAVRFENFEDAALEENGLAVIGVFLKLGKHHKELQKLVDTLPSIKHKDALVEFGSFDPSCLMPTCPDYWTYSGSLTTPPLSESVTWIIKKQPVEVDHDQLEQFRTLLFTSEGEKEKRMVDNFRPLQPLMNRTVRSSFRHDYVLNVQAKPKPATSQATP

Chain of Carbonic anhydrase 12 (O43570 whole entry): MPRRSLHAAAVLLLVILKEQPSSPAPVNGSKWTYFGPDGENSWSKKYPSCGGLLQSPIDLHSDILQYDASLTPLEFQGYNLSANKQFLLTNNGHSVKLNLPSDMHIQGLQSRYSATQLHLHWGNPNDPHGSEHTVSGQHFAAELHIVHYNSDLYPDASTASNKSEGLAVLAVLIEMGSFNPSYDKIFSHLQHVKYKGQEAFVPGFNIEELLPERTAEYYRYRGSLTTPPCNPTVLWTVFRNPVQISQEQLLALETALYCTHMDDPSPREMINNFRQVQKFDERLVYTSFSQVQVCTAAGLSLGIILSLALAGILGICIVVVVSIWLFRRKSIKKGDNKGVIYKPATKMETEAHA
Chain of Carbonic anhydrase 7 (P43166 whole entry): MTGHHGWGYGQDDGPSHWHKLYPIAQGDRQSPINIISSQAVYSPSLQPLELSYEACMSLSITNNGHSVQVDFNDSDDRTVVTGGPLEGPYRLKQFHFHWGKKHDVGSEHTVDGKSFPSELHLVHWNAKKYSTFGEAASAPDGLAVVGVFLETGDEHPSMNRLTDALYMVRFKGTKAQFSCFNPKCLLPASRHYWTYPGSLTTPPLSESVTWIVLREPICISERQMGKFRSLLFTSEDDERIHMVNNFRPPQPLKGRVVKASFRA
Chain of Carbonic anhydrase 3 (P07451 whole entry): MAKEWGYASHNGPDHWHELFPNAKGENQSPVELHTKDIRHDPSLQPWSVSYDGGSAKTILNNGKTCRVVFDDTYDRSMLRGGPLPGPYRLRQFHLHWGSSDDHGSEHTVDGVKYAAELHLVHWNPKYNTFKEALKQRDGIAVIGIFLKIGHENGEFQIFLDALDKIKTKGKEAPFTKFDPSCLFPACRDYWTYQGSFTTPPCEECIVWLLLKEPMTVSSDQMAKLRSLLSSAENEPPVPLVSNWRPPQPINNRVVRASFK
Chain of Carbonic anhydrase 13 (Q8N1Q1 whole entry): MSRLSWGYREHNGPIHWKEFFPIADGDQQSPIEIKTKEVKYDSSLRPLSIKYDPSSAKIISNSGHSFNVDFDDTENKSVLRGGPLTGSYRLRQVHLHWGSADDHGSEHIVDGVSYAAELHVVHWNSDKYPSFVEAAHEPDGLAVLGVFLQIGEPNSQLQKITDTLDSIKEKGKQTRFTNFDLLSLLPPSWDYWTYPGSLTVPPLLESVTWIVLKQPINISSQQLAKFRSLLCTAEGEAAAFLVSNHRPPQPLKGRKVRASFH
Chain of Carbonic anhydrase 1 (P00915 whole entry): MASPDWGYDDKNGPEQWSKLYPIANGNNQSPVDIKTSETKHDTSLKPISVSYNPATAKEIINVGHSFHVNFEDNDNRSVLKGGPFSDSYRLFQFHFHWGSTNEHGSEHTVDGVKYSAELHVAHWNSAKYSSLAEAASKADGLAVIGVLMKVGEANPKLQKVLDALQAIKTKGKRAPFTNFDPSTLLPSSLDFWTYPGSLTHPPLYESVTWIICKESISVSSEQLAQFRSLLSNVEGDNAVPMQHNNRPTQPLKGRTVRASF
Chain of Carbonic anhydrase 14 (Q9ULX7 whole entry): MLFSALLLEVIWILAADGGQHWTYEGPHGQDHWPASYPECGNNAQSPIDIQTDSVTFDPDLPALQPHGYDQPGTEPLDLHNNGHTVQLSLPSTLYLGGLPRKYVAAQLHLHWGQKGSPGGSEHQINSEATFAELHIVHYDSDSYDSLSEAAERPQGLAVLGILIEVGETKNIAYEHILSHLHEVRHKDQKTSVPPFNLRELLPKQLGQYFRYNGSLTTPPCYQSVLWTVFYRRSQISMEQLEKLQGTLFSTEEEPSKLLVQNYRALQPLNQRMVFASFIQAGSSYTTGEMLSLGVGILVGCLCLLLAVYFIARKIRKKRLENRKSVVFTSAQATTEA
Chain of Carbonic anhydrase 5A, mitochondrial (P35218 whole entry): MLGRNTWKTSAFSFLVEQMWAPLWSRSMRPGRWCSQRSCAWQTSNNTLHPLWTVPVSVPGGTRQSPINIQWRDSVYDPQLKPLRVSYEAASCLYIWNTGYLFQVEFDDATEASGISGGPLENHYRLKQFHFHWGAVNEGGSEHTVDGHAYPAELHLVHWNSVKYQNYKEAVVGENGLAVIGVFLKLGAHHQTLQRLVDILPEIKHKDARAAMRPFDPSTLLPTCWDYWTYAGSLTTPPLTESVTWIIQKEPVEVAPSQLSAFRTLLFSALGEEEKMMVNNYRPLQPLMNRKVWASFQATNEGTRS

Compound `NS(=O)(=O)c1nnc(NC(=O)C23CC4CC(CC(C4)C2)C3)s1` has a Ki [1] of 6.4 nM, a Ki [2] of 883 nM and a Ki [3] of 300000 nM. It also gave a Ki [4] of 35 nM, a Ki [5] of 2.8 nM and a Ki [6] of 652 nM.

`NS(=O)(=O)c1nnc(NC(=O)CC23CC4CC(CC(C4)C2)C3)s1` showed a Ki [1] of 49.5 nM, a Ki [2] of 362 nM and a Ki [3] of 410000 nM. For the same compound, the Ki [4] was 48 nM, the Ki [5] was 4.7 nM and the Ki [6] was 719 nM.

For `Nc1nnc(S(N)(=O)=O)s1`, the Ki [7] was 79 nM, the Ki [3] was 150000 nM and the Ki [5] was 34 nM.

Compound `Cc1cc(C)[n+](CCc2ccc(S(N)(=O)=O)cc2)c(C)c1` has a Ki [3] of 300000 nM and a Ki [6] of 34 nM.

`Nc1c(F)cc(S(=O)(=O)Nc2nnc(S(N)(=O)=O)s2)cc1Cl` was tested, and the Ki [4] was 2.9 nM, the Ki [5] was 13 nM and the Ki [6] was 30 nM.

For `Cc1ccc(-c2cc(C(F)(F)F)nn2-c2ccc(S(N)(=O)=O)cc2)cc1` [CELECOXIB], the Ki [8] was 794 nM, the Ki [7] was 98 nM and the Ki [9] was 689 nM. The Ki [3] was 70000 nM and the Ki [10] was 93 nM.
